Test results: PubChem BioAssay AID1963976 (Molecular Pharmacology Branch, DTP, NCI, 2024)

Test system: 435261-313-R-J1-PDC tumor spheroid viability
Test: Anticancer human tumor 435261-313-R-J1-PDC patient-derived colon adenocarcinoma cell line growth inhibition [PI3K]
Conditions: spheroids with HUVEC and MSC; for IC50: curve of first compound; for viability, T/C: stronger effect = lower value
Summary of the method: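 We assembled tumor spheroids that included a stromal compartment of HUVEC and MSCs, then exposed them to targeted agents alone and together with PI3K pathway inhibitors. Concentration series descended by half-log from clinically achievable Cmax levels. Viability served as the endpoint.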

[1] = second compound 0.0316 µM, first compound 0.0316 µM
[2] = second compound 0.0316 µM, first compound 0.1 µM
[3] = second compound 0.0316 µM, first compound 0.316 µM
[4] = second compound 0.0316 µM, first compound 1 µM
[5] = second compound 0.0316 µM, first compound 3.16 µM
[6] = second compound 0.0316 µM, first compound 10 µM
[7] = second compound 0.1 µM, first compound 0.0316 µM
[8] = second compound 0.1 µM, first compound 0.1 µM
[9] = second compound 0.1 µM, first compound 0.316 µM
[10] = second compound 0.1 µM, first compound 1 µM
[11] = second compound 0.1 µM, first compound 3.16 µM
[12] = second compound 0.1 µM, first compound 10 µM
[13] = second compound 0.316 µM, first compound 0.0316 µM
[14] = second compound 0.316 µM, first compound 0.1 µM
[15] = second compound 0.316 µM, first compound 0.316 µM
[16] = second compound 0.316 µM, first compound 1 µM
[17] = second compound 0.316 µM, first compound 3.16 µM
[18] = second compound 0.316 µM, first compound 10 µM
[19] = second compound 1 µM, first compound 0.0316 µM
[20] = second compound 1 µM, first compound 0.1 µM
[21] = second compound 1 µM, first compound 0.316 µM
[22] = second compound 1 µM, first compound 1 µM
[23] = second compound 1 µM, first compound 3.16 µM
[24] = second compound 1 µM, first compound 10 µM
[25] = second compound 3.16 µM, first compound 0.0316 µM
[26] = second compound 3.16 µM, first compound 0.1 µM
[27] = second compound 3.16 µM, first compound 0.316 µM
[28] = second compound 3.16 µM, first compound 1 µM
[29] = second compound 3.16 µM, first compound 3.16 µM
[30] = second compound 3.16 µM, first compound 10 µM
[31] = second compound 10 µM, first compound 0.0316 µM
[32] = second compound 10 µM, first compound 0.1 µM
[33] = second compound 10 µM, first compound 0.316 µM
[34] = second compound 10 µM, first compound 1 µM
[35] = second compound 10 µM, first compound 3.16 µM
[36] = second compound 10 µM, first compound 10 µM

CC(Cn1ccc(-c2ccc(C#N)c(Cl)c2)n1)NC(=O)c1cc(C(C)O)[nH]n1 (centres undefined) + Cc1nc(NC(=O)N2CCCC2C(N)=O)sc1-c1ccnc(C(C)(C)C(F)(F)F)c1
IC50 (second compound 0.0316 µM): > 10000 nM | IC50 (second compound 0.1 µM): > 10000 nM | IC50 (second compound 0.316 µM): < 31.6 nM | IC50 (second compound 1 µM): < 31.6 nM | IC50 (second compound 3.16 µM): < 31.6 nM | IC50 (second compound 10 µM): < 31.6 nM | viability, T/C [1]: 107% | viability, T/C [2]: 71.6% | viability, T/C [3]: 83.6% | viability, T/C [4]: 84.8% | viability, T/C [5]: 101% | viability, T/C [6]: 106% | viability, T/C [7]: 68.3% | viability, T/C [8]: 70.4% | viability, T/C [9]: 71.3% | viability, T/C [10]: 72.2% | viability, T/C [11]: 66.3% | viability, T/C [12]: 73.7% | viability, T/C [13]: 37.6% | viability, T/C [14]: 54.1% | viability, T/C [15]: 37.3% | viability, T/C [16]: 50.9% | viability, T/C [17]: 63.7% | viability, T/C [18]: 49.4% | viability, T/C [19]: 24.6% | viability, T/C [20]: 36.8% | viability, T/C [21]: 36.3% | viability, T/C [22]: 34.2% | viability, T/C [23]: 38.6% | viability, T/C [24]: 31.6% | viability, T/C [25]: 17.4% | viability, T/C [26]: 17.7% | viability, T/C [27]: 15.4% | viability, T/C [28]: 17.9% | viability, T/C [29]: 18.8% | viability, T/C [30]: 20.1% | viability, T/C [31]: 9.77% | viability, T/C [32]: 6.96% | viability, T/C [33]: 8.76% | viability, T/C [34]: 9.85% | viability, T/C [35]: 10.7% | viability, T/C [36]: 6%

CC1(C)CCC(Nc2ncc(C(F)(F)F)c(-c3c[nH]c4c(P(C)(C)=O)c(C#N)ccc34)n2)CN1 (centres undefined) + Cc1nc(NC(=O)N2CCCC2C(N)=O)sc1-c1ccnc(C(C)(C)C(F)(F)F)c1
IC50 (second compound 0.0316 µM): < 31.6 nM | IC50 (second compound 0.1 µM): < 31.6 nM | IC50 (second compound 0.316 µM): < 31.6 nM | IC50 (second compound 1 µM): < 31.6 nM | IC50 (second compound 3.16 µM): < 31.6 nM | IC50 (second compound 10 µM): < 31.6 nM | viability, T/C [1]: 47.1% | viability, T/C [2]: 45.9% | viability, T/C [3]: 39.3% | viability, T/C [4]: 38.1% | viability, T/C [5]: 33.7% | viability, T/C [6]: 0.64% | viability, T/C [7]: 48.5% | viability, T/C [8]: 36.8% | viability, T/C [9]: 41.9% | viability, T/C [10]: 38.3% | viability, T/C [11]: 32.4% | viability, T/C [12]: 0.39% | viability, T/C [13]: 35.5% | viability, T/C [14]: 33.5% | viability, T/C [15]: 27.3% | viability, T/C [16]: 29.3% | viability, T/C [17]: 25.4% | viability, T/C [18]: 0.33% | viability, T/C [19]: 23.3% | viability, T/C [20]: 22.3% | viability, T/C [21]: 26.7% | viability, T/C [22]: 27.3% | viability, T/C [23]: 14.8% | viability, T/C [24]: 0.53% | viability, T/C [25]: 14.8% | viability, T/C [26]: 17.2% | viability, T/C [27]: 14.7% | viability, T/C [28]: 14.2% | viability, T/C [29]: 6.95% | viability, T/C [30]: 0.84% | viability, T/C [31]: 7.65% | viability, T/C [32]: 5.94% | viability, T/C [33]: 5.07% | viability, T/C [34]: 6.14% | viability, T/C [35]: 2.6% | viability, T/C [36]: 1.22%
